A word on the IC50: it is the concentration that inhibits the measured activity by half.

Among the data in patent US9822138B2, “Antiviral beta-amino acid ester phosphodiamide compounds” (Merck Sharp & Dohme Corp., priority 2015, dated 2017) are IC50 values, retold here.

Like-named read-outs stand apart in the source and are kept apart here.

The assay concerns HIV-1 (H9/IIIB strain). The assay can be described thus: microbe, parasite or virus in culture. The assay is classed as cell-based. Here is the method: Assessing Antiviral Potency in a Multiple Round HIV-1 Infection Assay (Viking Assay)
The antiviral activity of the tenofovir prodrugs of the Examples herein was assessed in an assay that measures the rate of replication of HIV in cell culture, termed the Viking assay (Viral KINetics in Green cells) and performed as follows. HIV-1 replication was monitored using MT4-gag-GFP clone D3 (hereafter designated MT4-GFP), which are MT-4 cells modified to harbor a GFP reporter gene, the expression of which is dependent on the HIV-1 expressed proteins tat and rev. Productive infection of an MT4-GFP cell with HIV-1 results in GFP expression approximately 24 h post-infection. MT4-GFP cells were maintained at 37° C./5% CO2/90% relative humidity in RPMI 1640 supplemented with 10% fetal bovine serum, 100 U/ml penicillin/streptomycin, and 400 μg/ml G418 to maintain the reporter gene. For infections, MT4-GFP cells were placed in the same medium lacking G418 and infected overnight with HIV-1 (H9/IIIB strain) virus at an approximate multiplicity of infection of 0.01 in the same incubation conditions. Cells were then washed and re-suspended in either RPMI 1640 supplemented with 10% or 50% normal human serum (NHS) at 1.6×10^5 cells/mL (10% NHS or 50% NHS, respectively). Compound plates were prepared by dispensing compounds dissolved in DMSO into wells of 384 well poly-D-lysine-coated plates (0.2 μl/well) using an ECHO acoustic dispenser. Each compound was tested in a 10-point serial 3-fold dilution (typical final concentrations: 8.4 μM-0.42 nM). Controls included no inhibitor (DMSO only) and a combination of three antiviral agents (efavirenz, indinavir, an in-house integrase strand transfer inhibitor at final concentrations of 4 μM each). Cells were added ([…]) to compound plates and the infected cells were maintained at 37° C./5% CO2/90% relative humidity.
Infected cells were quantified at two time points, ˜48 h and ˜72 h post-infection, by counting the number of green cells in each well using an Acumen eX3 scanner. […] Inhibition of R0 is calculated for each well, and IC50s determined by non-linear 4-parameter curve fitting.

[1] abbreviates: Human immunodeficiency virus 1, IIIB, 10% normal human serum, MT4-GFP cells infected with HIV-1 H9/IIIB, inhibition of reproductive ratio R0, read-out: Viking, IC50 (10% NHS).
Where [2] appears, read: Human immunodeficiency virus 1, IIIB, 50% normal human serum, MT4-GFP cells infected with HIV-1 H9/IIIB, inhibition of reproductive ratio R0, read-out: Viking, IC50 (50% NHS).
[3] abbreviates: Human immunodeficiency virus 1, 10% normal human serum, MT4-GFP cells infected with HIV-1 H9/IIIB, inhibition of reproductive ratio R0, read-out: Viking, IC50 (10% NHS).
The mark [4] stands for this setting: Human immunodeficiency virus 1, 50% normal human serum, MT4-GFP cells infected with HIV-1 H9/IIIB, inhibition of reproductive ratio R0, read-out: Viking, IC50 (50% NHS).

`CC(C)OC(=O)CCNP(=O)(CO[C@H](C)Cn1cnc2c(N)ncnc21)NCCC(=O)OC(C)C` [Example 1, 1-methylethyl 8-{[(1R)-2-(6-amino-9H-purin-9-yl)-1-methylethoxy]methyl}-2-methyl-4-oxo-3-oxa-7,9-diaza-8-phosphadodecan-12-oate 8-oxide]: the half-maximal inhibitory concentration (IC50) is more than 8.4 µM (Human immunodeficiency virus 1, IIIB, read-out: Viking, IC50 (10% NHS)) and more than 8.4 µM (Human immunodeficiency virus 1, IIIB, read-out: Viking, IC50 (50% NHS)).
For `CC(C)OC(=O)C[C@@H](C)NP(=O)(CO[C@H](C)Cn1cnc2c(N)ncnc21)N[C@H](C)CC(=O)OC(C)C` [Example 2, 1-methylethyl (6R,10R)-8-{[(1R)-2-(6-amino-9H-purin-9-yl)-1-methylethoxy]methyl}-2,6,10-trimethyl-4-oxo-3-oxa-7,9-diaza-8-phosphadodecan-12-oate 8-oxide], the concentration for half-maximal inhibition (IC50) was more than 8.4 µM under setting [1] and more than 8.4 µM under setting [2].
With `CC(C)OC(=O)[C@@H](C)CNP(=O)(CO[C@H](C)Cn1cnc2c(N)ncnc21)NC[C@H](C)C(=O)OC(C)C` [Example 3, 1-methylethyl (5S,11S)-8-{[(1R)-2-(6-amino-9H-purin-9-yl)-1-methylethoxy]methyl}-2,5,11-trimethyl-4-oxo-3-oxa-7,9-diaza-8-phosphadodecan-12-oate 8-oxide], the IC50 was 7.34 µM under setting [1] and more than 8.4 µM under setting [2].
As for `CC(C)OC(=O)[C@H](C)CNP(=O)(CO[C@H](C)Cn1cnc2c(N)ncnc21)NC[C@@H](C)C(=O)OC(C)C` [Example 4, 1-methylethyl (5R,11R)-8-{[(1R)-2-(6-amino-9H-purin-9-yl)-1-methylethoxy]methyl}-2,5,11-trimethyl-4-oxo-3-oxa-7,9-diaza-8-phosphadodecan-12-oate 8-oxide], the concentration for half-maximal inhibition (IC50) is, setting by setting: under setting [1], 6.46 µM; under setting [2], more than 8.4 µM.
On the same counts, the results for `CC(C)OC(=O)C[C@H](C)NP(=O)(CO[C@H](C)Cn1cnc2c(N)ncnc21)N[C@@H](C)CC(=O)OC(C)C` [Example 5, 1-methylethyl (6S,10S)-8-{[(1R)-2-(6-amino-9H-purin-9-yl)-1-methylethoxy]methyl}-2,6,10-trimethyl-4-oxo-3-oxa-7,9-diaza-8-phosphadodecan-12-oate 8-oxide] are more than 8.4 µM and more than 8.4 µM.
Take `CC(C)OC(=O)[C@H](C)NP(=O)(CO[C@H](C)Cn1cnc2c(N)ncnc21)NC[C@H](C)C(=O)OC(C)C` (stereo partly shown) [Example 6B]: the IC50 is, setting by setting: under setting [3], 0.258 µM; under setting [4], 0.494 µM.
On the same counts, the results for `CC(C)OC(=O)C[C@@H](C)NP(=O)(CO[C@H](C)Cn1cnc2c(N)ncnc21)N[C@H](C)C(=O)OC1CCC1` (stereo partly shown) [Example 18B] are 3.81 µM and 7.12 µM.
Regarding `CCCCCOC(=O)C(C)(C)N[P@@](=O)(CO[C@H](C)Cn1cnc2c(N)ncnc21)N[C@@H](CC(=O)OC(C)C)C(C)C` [Example 24B], the concentration for half-maximal inhibition (IC50) by setting is: under setting [3], 0.0289 µM; under setting [4], 0.17 µM.
